Assays:
MPTP induced toxicity = settings: mice, cited from earlier work; for effect on dopamine levels: MPTP
MAO = assay: Total MAO activity, spectrophotometric assay in liver homogenate; type: biochemical, cow or rat; settings: for percent inhibition of MAO activity: at maximal or saturating inhibition concentrations, tyramine substrate, 37 degrees Centigrade; for maximal inhibition concentration: dissolved in distilled water, concentration curve at reaction time of one hour; for MAO inhibition over the reaction time course: saturating concentrations, over 60 minutes of MAO activity
Protocol: The MAO activities of the compounds and substances were determined using standard reaction conditions as described in Halt, A., et al., Analytical Biochemistry, 244:384-392 (1997).
(§1) Liver samples from cow or rat were obtained immediately after sacrifice. Liver was homogenized in a Polytron mechanical homogenizer in a ratio of 1 gram of liver to 1 ml of potassium phosphate buffer (0.2 M at pH of 7.6). Large membranes were removed by low speed centrifugation at 1000×g for 15 minutes. The supernatant was removed from the pellet and used immediately for MAO activity assays or stored at 0 degrees Centigrade. Protein levels were determined in the liver homogenate by the Bradford protein reaction.
(§2) The standard reaction conditions were developed as a modification of the spectrophotometric assay using standard conditions (Halt, A., et al., Analytical Biochemistry, 244:384-392 (1997)). Total MAO activity was determined by incubating the liver preparations for 30 minutes at 37 degrees Centigrade with a 1/1 dilution of a test fraction (compound or substance to be tested dissolved in distilled water) or control condition (water alone). This incubation allowed the test compound or substance to interact with the enzyme under physiological conditions. The final tissue concentration in the reaction mixture was 3.5 mg per 100 ml.
Following the incubation with test compounds/substances or control, the MAO reactions were initiated and the reactions were incubated at 37 degrees Centigrade. The reaction was initiated by mixing 150 μl of preincubated tissue with 150 μl of chromogenic solution (containing 10 mM vanillic acid, 5 mM 4-amino antipyrene, 20 units/ml of peroxidase in 0.2 M potassium phosphate buffer final concentration pH 7.6), 600 μl of amine substrate (tyramine 500 micromolar), and 100 μl of distilled water (1 ml reaction volume). The standard reaction time was for 1 hour, but reaction times varied from 1 minute to 3 hours to evaluate the time course of the reaction in the presence or absence of test substance or control. The reactions were terminated by the addition of 30 μl of a stop solution of phenelzine (10 mM). The stopped reactions were stored on ice and placed at room temperature for reading in a spectrophotometer at a wavelength of 498 nm. The resulting values were analyzed to determine the amount of reaction product produced by MAO activity. This assay was reliable and simple to perform. A standard curve using hydrogen peroxide for enzyme activity was prepared for each experiment to determine the activity of the enzyme.
(§3) Each of the compounds and substances of the present invention were evaluated by initially determining a concentration curve at a reaction time of one hour. After determining the concentration curves of each compound or substance on MAO activity, a reaction time course in the presence or absence of test compound or substance was determined and time course curves were generated. Following these experiments, the effect of each test compound or substance was evaluated on MAO A and MAO B activity by the same reaction studies as described above for the total enzyme activity.

MAO A = assay: Selective MAO A assay in liver homogenate, other isoform blocked by selective inhibitor; type: biochemical, cow or rat; settings: saturating concentration; significantly different from control
Protocol: as §1
as §2, with “This incubation allowed the test compound or substance to interact with the enzyme under physiological conditions. The final tissue concentration in the reaction mixture was 3.5 mg per 100 ml.” left out
(§4) Following the incubation with test compounds/substances or control, the MAO reactions were initiated and the reactions were incubated at 37 degrees Centigrade. […] The stopped reactions were stored on ice and placed at room temperature for reading in a spectrophotometer at a wavelength of 498 nm. The resulting values were analyzed to determine the amount of reaction product produced by MAO activity. […]
(§5) Selective assays of MAO A and MAO B isoforms were determined by using selective inhibitors of each of these enzymes. […]
as §3

MAO B = assay: Selective MAO B assay in liver homogenate, other isoform blocked by selective inhibitor; type: biochemical, cow or rat; settings: saturating concentration; significantly different from control
Protocol: as §1
as §2, with “This incubation allowed the test compound or substance to interact with the enzyme under physiological conditions. The final tissue concentration in the reaction mixture was 3.5 mg per 100 ml.” left out
as §4, §5, §3

Compound | effect on dopamine levels (MPTP induced toxicity) | effect on decrease in dopamine metabolite levels induced by MPTP (MPTP induced toxicity) | percent inhibition of MAO activity (MAO) | maximal inhibition concentration (MAO) | MAO inhibition over the reaction time course (MAO) | inhibition of MAO A activity (MAO A) | inhibition of MAO B activity (MAO B)
c1ccc(-c2ccncc2)cc1 [4-phenylpyridine] | no significant effect on dopamine levels | prevented the decrease in dopamine metabolite levels |  |  |  |  | 
c1cncc([C@@H]2CCCCN2)c1 [anabasine, Anabasine] |  |  | 10-13% | 0.2 mg/mL | effective at inhibiting the enzyme at all time points in the reaction | inhibit both MAO A and MAO B activity | inhibit both MAO A and MAO B activity
C1=CCC(c2cccnc2)NC1 (stereo not shown) [anatabine, Anatabine] |  |  | approximately 60% | 0.1 mg/mL | effective at inhibiting the enzyme at all time points in the reaction | equally effective in inhibiting both MAO A and MAO B activities | equally effective in inhibiting both MAO A and MAO B activities
CN1CCCC1c1cccnc1 (stereo not shown) [nicotine] | no significant effect on dopamine levels | prevented the decrease in dopamine metabolite levels |  |  |  |  | 
c1cncc([C@@H]2CCCN2)c1 [nornicotine, Nornicotine] |  |  | 80 to 95% | 0.08 mg/mL | effective at inhibiting the enzyme at all time points in the reaction | equally effective in inhibiting both MAO A and MAO B activities | equally effective in inhibiting both MAO A and MAO B activities
